Source: paper PMC5843810, “18th European Symposium on Radiopharmacy and Radiopharmaceuticals” (EJNMMI Radiopharmacy and Chemistry, 2016)
Read-outs that look alike come from different tables or passages of the source.

Legend:
[1] = in vivo; conditions: C57BL/6, mouse, αvβ3-positive melanoma tumor, iv, total radioactivity
Procedure: Materials and methods: cRGDfK was functionalized with N3CH2COOH and N3PEG7COOH at ε-amino group of lysine. […] Biodistribution study of the two radiotracers was carried out in C57BL/6 mice bearing αvβ3-positive melanoma tumors. The radioactive preparation (~3.7 MBq/animal, 100 μL) was injected intravenously through the lateral tail vein. At different time intervals after injection (30, 60, and 180 min), the animals (n = 4/time point) were sacrificed and the relevant organs excised for measurement of retained activity.

[2] = CHI(IAM) non-specific binding measurement; type: physicochemical; conditions: experimental non-specific binding measurement
Description: Materials and methods: Similarly to the Ligand Efficiency (LE) index, we explored the usefulness of the Ligand Specific Efficiency index (LSE), which we defined as the ratio between affinity (expressed as e.g. pIC50 or pKd), and the logarithmic value of the experimental non-specific binding measurement, CHI(IAM).^[Jiang] LSE provides a measure of affinity, normalized to non-specific binding.

[3] = target: prostacyclin receptor (IPR) (Homo sapiens, UniProt P43119); test: Affinity for prostacyclin receptor (IPR); type: binding
Description: This concept was applied to the development of a prostacyclin receptor (IPR) tracer.

[4] = type: in vivo; conditions: healthy mice, 2 min
Description: (§1) Materials and methods: All the chemicals and reagents used in the experiments were obtained from commercial sources and used without any further purification. Synthesis of 5-cyano-N-(4-(4-methylpiperazine-1-yl)-2-(4-methylpiperidin-1-yl)phenyl)furan-2-carboxamide and 5-cyano-N-(2-(4-methylpiperidine-1-yl)-4-(piperazine-1-yl)phenyl)furan-2-carboxamide molecules were done according to literature methods available with slight modifications for radiolabeling experiments^3. The [^11C]-methyl triflate reacts with the precursor in presence of a base at room temperature for 2 minutes gives the carbon-11 radiolabeled [^11C]BA-1 which was purified by using semi-preparative reversed-phase high pressure liquid chromatography (RP-HPLC). The peak corresponding the reference compound will be collected and checked for the purity using analytical RP-HPLC. Baseline biodistribution study was performed at 2, 10, 30 and 60 min. respectively. Blocking experiment (10 mg/kg cold compound) was performed at 30 min time point in healthy female adult mice n=3 and compared with vehicle treated batch. In vitro autoradiography experiments were carried on rat brain slices by incubating tracer and cold blocking solution. MicroPET imaging studies were performed on a Focus™ 220 microPET scanner with female rats.

[5] = target: T1, CSF-1R (Rattus norvegicus, UniProt Q00495); type: in vivo; conditions: female rats
T1 construct: from tissue; host or cells: living female rats (brain)
T1 sequence (Q00495 20-978): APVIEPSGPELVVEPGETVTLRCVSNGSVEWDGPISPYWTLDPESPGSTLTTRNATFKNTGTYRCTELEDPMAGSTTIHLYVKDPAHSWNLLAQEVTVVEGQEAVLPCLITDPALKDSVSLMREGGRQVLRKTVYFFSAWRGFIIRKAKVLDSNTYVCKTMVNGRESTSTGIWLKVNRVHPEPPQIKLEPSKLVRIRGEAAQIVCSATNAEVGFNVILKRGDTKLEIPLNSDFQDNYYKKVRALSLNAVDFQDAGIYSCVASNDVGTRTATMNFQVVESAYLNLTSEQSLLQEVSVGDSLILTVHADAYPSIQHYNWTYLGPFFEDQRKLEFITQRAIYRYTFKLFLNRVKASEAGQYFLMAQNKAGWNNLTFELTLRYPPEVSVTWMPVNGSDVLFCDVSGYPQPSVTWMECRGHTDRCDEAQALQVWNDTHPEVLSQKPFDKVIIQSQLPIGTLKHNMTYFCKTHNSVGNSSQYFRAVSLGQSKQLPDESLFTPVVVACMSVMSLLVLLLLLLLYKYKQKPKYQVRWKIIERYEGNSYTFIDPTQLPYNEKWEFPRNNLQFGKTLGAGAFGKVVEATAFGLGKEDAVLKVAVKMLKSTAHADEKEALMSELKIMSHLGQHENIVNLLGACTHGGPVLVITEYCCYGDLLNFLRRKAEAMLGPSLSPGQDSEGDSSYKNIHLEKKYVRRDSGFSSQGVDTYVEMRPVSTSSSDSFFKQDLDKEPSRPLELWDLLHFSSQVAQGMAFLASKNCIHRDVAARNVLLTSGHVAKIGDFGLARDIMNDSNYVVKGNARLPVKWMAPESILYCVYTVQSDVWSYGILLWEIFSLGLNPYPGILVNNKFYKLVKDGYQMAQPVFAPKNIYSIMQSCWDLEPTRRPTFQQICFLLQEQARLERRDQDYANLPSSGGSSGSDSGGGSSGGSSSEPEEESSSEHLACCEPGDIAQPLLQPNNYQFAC
Description: as §1

[6] = Biodistribution and pharmacokinetics in healthy Balb/C mice; type: in vivo
Procedure: (§2) Material and methods: [^18F]Amylovis® was synthesized by nucleophilic substitution of the tosyl group of the precursor. Thirty five healthy male Balb/C mice of 10-12 weeks were divided into […] of 5 animals each and injected with similar doses of [^18F]Amylovis® through a lateral tail vein. Blood samples were collected and the animals were sacrificed at 5, 15, 30, 45, 70 and 180 minutes. Organs of interest were removed and washed with saline. Radioactivity of blood, plasma, urine, faeces, brain, cerebellum, heart, liver, stomach, spleen, bowel, colon, left kidney, muscle, bone and tail was measured in a well counter. To assess protein binding, plasma samples were diluted with acetonitrile and centrifuged at 4000 g. Pellets of proteins and supernatants were separated and their radioactivity measured in a well counter. RadioTLC analysis of plasma were performed for the same purpose in silicagel 60 and mobile phase of acetonitrile/water (95/5). 20μL of each supernatant was analysed by HPLC-RP using a C18 column and acetonitrile/water (75/25) as mobile phase to identify plasma metabolites. Pharmacokinetic parameters (AUC, t1/2, Cmax, Cl, Vss) were calculated using non-compartmental analysis (NCA). Dynamic PET/CT images of healthy and transgenic APPSwe/PS1dE9 mice were acquired for 2.5 h after i.v. administration. […]

[7] = Plasma protein binding (acetonitrile precipitation, radioTLC); type: in vitro ADME, mice; conditions: mouse plasma
Procedure: as §2

[8] = target: MCHR1 (Rattus norvegicus, UniProt P97639); conditions: rats, n=3
Procedure: Materials and methods: In vivo experiments were conducted in naïve male Sprague Dawley rats. For small-animal PET/CT/MR experiments, rats were anesthetized by isoflurane. 25min after [^18F]FE@SNAP iv injection (47.8±1MBq; SA: 19.7±6GBq/μmol), vehicle (baseline group, n=3) or 15mg/kg SNAP-7941 (blocking group, n=3) were administered through the tail vein. 75min after tracer injection, the rats were sacrificed. Radioactivity concentrations in brain were calculated and expressed as SUVs. In another set of experiments, [^18F]FE@SNAP (51.3±26MBq; SA: 36.1±28GBq/μmol) as well as vehicle (baseline group, n=3) or 15mg/kg SNAP-7941 (blocking group, n=3) were injected into conscious freely moving rats via a permanent catheter implanted into the jugular vein, thus excluding an influence of anaesthesia. 45min after tracer application, rats were sacrificed, the brain was removed and cut for ex vivo autoradiography. Subsequently, brain slices were put on Phosphor Imager plates for exposure and analyzed with a Cyclone Phosphor Imager the following day. Regions of interest (ROIs) were drawn for the hypothalamic region, the ventricle and a non-target region.

[9] = over 6 h, analytical HPLC
Procedure: (§3) Materials and methods: [^18F]MEL050 was synthesized using a one-step bromine-for-fluorine nucleophilic heteroaromatic substitution. Briefly, [^18F]MEL050 was prepared from a bromo-precursor, using no-carrier-added 18F-KF-Kryptofix 222 (dimethylformamide, 150°C, 6 min), followed by preparative HPLC purification (C18 column (300x7.8 mm, 7 μm), isocratic elution with acetonitrile/20 mM ammonium bicarbonate (20:80, v/v), 3.0 ml/min) and cartridge-reformulation (Sep-Pak® Plus C18 environmental) of the collected fraction. Radiochemical and chemical purity, stability and specific activity measurements were monitored using analytical HPLC. Chemical identity of the labeled compound [^18F]MEL050 was assessed by co-injection with non-radioactive standard MEL050. Experimental model of pulmonary metastatic melanoma was obtained by IV injection of B16-F10 cells in NMRI mice. Mice (n=8) were imaged 15 days after inoculation, using INVEON microPET/CT device (Siemens), after IV injection of 0.36±0.04MBq/g of [^18F]MEL050. Dynamic and static acquisitions were acquired from time of injection to 2h after tracer injection. The maximum percentage of [^18F]MEL050 Injected Dose per g of lung tissue (%ID/g Max) was determined using ROIs manually drawn on 1h-post injection PET images, and correlated to ex-vivo findings.

[10] = test system: B16-F10 pulmonary metastatic melanoma; conditions: NMRI mice, B16-F10 lung metastases, 1h-post injection PET, n=8
Procedure: as §3

[11] = PET/CT imaging in nude mice bearing U87MG xenograft tumor; type: in vivo; conditions: mouse, 90 min post injection
Procedure: Materials and methods: The PET imaging properties of [^68Ga]FSC(succ-RGD)3 were studied in nude mice bearing M21 human melanoma xenografts and human glioblastoma U87MG xenograft tumor. A parallel PET imaging of ^68GaNODAGA-RGD in same mouse bearing U87MG xenograft tumor was performed as a comparison.

[12] = target: T2, PSMA (Homo sapiens, UniProt Q04609); test: Competitive binding assay on PSMA-positive LNCaP cells against 68Ga-PSMA-10; conditions: against 68Ga-PSMA-10, cold reference compounds
T2 construct: endogenous in cells; host or cells: LNCaP
Procedure: (§4) Materials and methods: The PSMA binding motif Glu-NH-CO-NH-Lys was synthesized by a well-established method (4) using solid phase chemistry and subsequently an amino acid linker was built up by fmoc-based solid phase peptide synthesis (SPPS). The non-radioactive reference compounds were also prepared analogically and eventually conjugated by 6-fluoronicotinic acid. After separation from the resin and deprotection the peptidomimetics were labeled using the TFP-ester of 6-[^18F]fluoronicotinic acid as prosthetic group. The Ki values of all compounds were determined by competitive binding assays on PSMA-positive LNCaP cells against ^68Ga-PSMA-10 (5) using the respective cold reference compounds. Additionally, the cellular internalization of the radiofluorinated ligands was determined.

[13] = test system: LNCaP cells; test: Cellular internalization of radiofluorinated PSMA ligands; type: cell-based; conditions: in vitro
Procedure: as §4

[14] = test system: U-87 MG and SKOV-3 tumours; conditions: 1 h after injection
Procedure: The in vitro binding characteristics of FPyPEGCBT-c(RGDfK) were analysed by standard binding assay in U-87 MG and SKOV-3 cancer models and its selectivity towards integrins by siRNA depletions. Its preclinical potential was studied in mice bearing subcutaneous tumours by ex vivo biodistribution studies and in vivo microPET/CT imaging.

Chain of MCHR1 (P97639 whole entry): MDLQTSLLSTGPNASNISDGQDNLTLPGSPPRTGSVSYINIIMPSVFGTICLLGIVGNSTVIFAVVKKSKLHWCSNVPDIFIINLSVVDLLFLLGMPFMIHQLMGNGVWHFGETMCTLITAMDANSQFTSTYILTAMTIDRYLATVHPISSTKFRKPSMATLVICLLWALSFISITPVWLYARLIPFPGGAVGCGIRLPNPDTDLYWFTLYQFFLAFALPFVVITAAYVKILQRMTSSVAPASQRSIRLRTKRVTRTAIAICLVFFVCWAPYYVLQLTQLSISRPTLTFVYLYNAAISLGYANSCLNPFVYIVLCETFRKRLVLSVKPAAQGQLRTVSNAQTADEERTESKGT
Chain of prostacyclin receptor (IPR) (P43119 whole entry, species assumed): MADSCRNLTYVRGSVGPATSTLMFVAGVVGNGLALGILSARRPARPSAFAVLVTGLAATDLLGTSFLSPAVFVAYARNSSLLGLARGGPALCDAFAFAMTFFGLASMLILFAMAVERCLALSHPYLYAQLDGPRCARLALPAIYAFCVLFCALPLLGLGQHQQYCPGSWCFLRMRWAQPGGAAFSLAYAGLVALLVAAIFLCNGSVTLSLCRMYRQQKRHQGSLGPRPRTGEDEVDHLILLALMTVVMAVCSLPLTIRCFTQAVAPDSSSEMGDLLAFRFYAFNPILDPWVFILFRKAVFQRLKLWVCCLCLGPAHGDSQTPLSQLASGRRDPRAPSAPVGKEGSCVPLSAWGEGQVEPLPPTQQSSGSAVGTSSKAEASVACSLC
T2 sequence (Q04609 whole entry): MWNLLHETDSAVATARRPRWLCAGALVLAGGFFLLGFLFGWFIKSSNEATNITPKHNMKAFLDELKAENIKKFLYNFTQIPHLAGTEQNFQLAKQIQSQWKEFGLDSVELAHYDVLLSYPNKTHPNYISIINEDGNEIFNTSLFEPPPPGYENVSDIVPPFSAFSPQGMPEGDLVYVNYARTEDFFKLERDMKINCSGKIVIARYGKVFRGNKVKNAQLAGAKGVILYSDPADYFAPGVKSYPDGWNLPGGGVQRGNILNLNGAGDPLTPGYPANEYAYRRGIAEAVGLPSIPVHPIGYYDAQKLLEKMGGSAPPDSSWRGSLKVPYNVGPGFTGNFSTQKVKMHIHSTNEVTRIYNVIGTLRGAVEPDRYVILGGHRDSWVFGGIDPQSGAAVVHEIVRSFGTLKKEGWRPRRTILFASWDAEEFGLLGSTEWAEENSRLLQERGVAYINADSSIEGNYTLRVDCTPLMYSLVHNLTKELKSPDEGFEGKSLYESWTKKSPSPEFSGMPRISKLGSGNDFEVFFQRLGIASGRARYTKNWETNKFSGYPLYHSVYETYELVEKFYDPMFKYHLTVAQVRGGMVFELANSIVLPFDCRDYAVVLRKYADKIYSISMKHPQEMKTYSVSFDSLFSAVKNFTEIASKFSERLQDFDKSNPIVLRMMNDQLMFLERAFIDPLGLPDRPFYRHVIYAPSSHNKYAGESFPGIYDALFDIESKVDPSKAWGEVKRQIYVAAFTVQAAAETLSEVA

Molecule: N=C(N)NCCC[C@@H]1NC(=O)[C@H](CCCCNC(=O)Cn2cc(C[C@H](N)C(=O)O)nn2)NC(=O)[C@@H](Cc2ccccc2)NC(=O)[C@H](CC(=O)O)NC(=O)CNC1=O [99mTc(CO)3-Pra-Tz-CH2-cRGDfK, metal not drawn]
- tissue uptake at 0.5 h [1]: 3.01 ± 0.77 %ID/g

Molecule: N=C(N)NCCC[C@@H]1NC(=O)[C@H](CCCCNC(=O)CCOCCOCCOCCOCCOCCOCCOCCn2cc(C[C@H](N)C(=O)O)nn2)NC(=O)[C@@H](Cc2ccccc2)NC(=O)[C@H](CC(=O)O)NC(=O)CNC1=O [99mTc(CO)3-Pra-Tz-PEG7-cRGDfK, metal not drawn]
- tissue uptake at 0.5 h [1]: 4.11 ± 0.51 %ID/g

Molecule: CC(C)Oc1ccc(Cc2ccc(NC3=NCCN3)cc2)cc1.Cl [Ro1138452]
- CHI(IAM) [2]: 58
- Ki [3]: 0.23 nM

Molecule: CC1CCN(c2cc(N3CCN(C)CC3)ccc2NC(=O)c2ccc(C#N)o2)CC1 [[11C]-BA1, 5-cyano-N-(4-(4-methylpiperazine-1-yl)-2-(4-methylpiperidin-1-yl)phenyl)furan-2-carboxamide]
- lung uptake [4]: 14 % ID
- tracer uptake into the brain [4]: 4 % ID
- brain SUV, baseline ([5]; baseline microPET): 1.2 SUV
- brain SUV, with blocking ([5]; blocking with cold compound): 2 SUV

Molecule: COc1ccc2cc(CCC[18F])ccc2c1 [[18F]Amylovis®, [^18F]-2-(3-fluoropropyl)-6-methoxynaphtalene]
- Plasma T1/2 ([6]; Balb/C mice, i.v., non-compartmental analysis): 37 min
- blood brain barrier crossing ([6]; mice): crossed blood brain barrier
- protein binding [7]: No significant protein binding

Molecule: COCC1=C(C(=O)OCC[18F])C(c2ccc(F)c(F)c2)N(C(=O)NCCCN2CCC(c3cccc(NC(C)=O)c3)CC2)C(=O)N1 (stereo not drawn) [[18F]FE@SNAP]
- SUV in the ventricular system, blocking group ([8]; 15mg/kg SNAP-7941 25min after tracer): 0.34±0.07 SUV
- SUV in the ventricular system, baseline group ([8]; vehicle 25min after tracer): 0.73±0.11 SUV

Molecule: CCN(CC)CCNC(=O)c1ccc([18F])nc1 [[18F]MEL050]
- product stability (RCP) [9]: > 98%
- %ID/g Max in lung tumours [10]: 4.7±2.6%

Molecule: C/C1=C/C(=O)N(O)CCC[C@H](NC(=O)CCC(=O)NCCCC[C@@H]2NC(=O)[C@@H](Cc3ccccc3)NC(=O)[C@H](CC(=O)O)NC(=O)CNC(=O)[C@H](CCCNC(=N)N)NC2=O)C(=O)OCC/C(C)=C\C(=O)N(O)CCC[C@H](NC(=O)CCC(=O)NCCCC[C@@H]2NC(=O)[C@@H](Cc3ccccc3)NC(=O)[C@H](CC(=O)O)NC(=O)CNC(=O)[C@H](CCCNC(=N)N)NC2=O)C(=O)OCC/C(C)=C\C(=O)N(O)CCC[C@H](NC(=O)CCC(=O)NCCCC[C@@H]2NC(=O)[C@@H](Cc3ccccc3)NC(=O)[C@H](CC(=O)O)NC(=O)CNC(=O)[C@H](CCCNC(=N)N)NC2=O)C(=O)OCC1 [[68Ga]FSC(succ-RGD)3, metal not drawn]
- tissue to tissue ratio at […] ([11]; tumour and kidneys, read-out: tumor/kidneys ratio): 1.3
- tissue to tissue ratio at […] ([11]; tumour and muscle, read-out: tumor/muscle ratio): 4.9

Molecule: PSMA-1007
- Ki [12]: 6 nM
- internalization ratio [13]: about 70%

Molecule: [18F]FPyPEGCBT-c(RGDfK) (head to tail)
- tumour uptake, SKOV-3 [14]: 2.4 %ID/g
- tumour uptake, U-87 MG [14]: 2.9 %ID/g
